The source of these data is paper PMC11017388 (ACS Medicinal Chemistry Letters, 2024).

Read-outs that look alike come from different tables or passages of the source.

Data set [1] addresses T1, PKa (Homo sapiens, UniProt P03952). As to conditions: competitive, reversible inhibitor; cited from earlier work.
The target of data set [2] is T2, FXIIa (Homo sapiens, UniProt P00748).
T2 sequence (P00748 373-615 limits assumed): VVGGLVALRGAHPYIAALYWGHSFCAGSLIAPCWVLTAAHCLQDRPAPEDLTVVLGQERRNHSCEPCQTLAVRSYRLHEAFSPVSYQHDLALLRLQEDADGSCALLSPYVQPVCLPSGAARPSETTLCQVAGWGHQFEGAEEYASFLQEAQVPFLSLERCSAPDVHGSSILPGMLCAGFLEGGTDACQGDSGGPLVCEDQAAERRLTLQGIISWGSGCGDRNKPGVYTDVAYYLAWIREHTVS
In words: Isolated enzyme potency against FXIIa, preincubation time course. As to conditions: for IC50: read-out: FXIIa IC50; for Inhibition of FXIIa activity (in words): time course experiments.
Method: (§1) Isolated enzyme potency was determined against PKa and FXIIa, using FXIIa as a test for the selective binding interaction with PKa.

Data set [3] in a line: Stability in DMSO and aqueous media (LCMS observation). In kind it is physicochemical. As to conditions: protodeborylation observed by LCMS.
Data set [4] deals with plasma kallikrein (PKa) (Homo sapiens, UniProt P03952). In words: Isolated enzyme potency against PKa, IC50 after enzyme/inhibitor preincubation time course. As to conditions: for Inhibition of PKa (in words): preincubation time course.
Method: as §1
A short description of data set [5]: NMR stability study of pinacol boronate in PBS buffer. Type of data set: physicochemical. As to conditions: pH7.4 phosphate buffer (D2O). The procedure:
Molecular docking experiments were conducted to visualize the potential binding mode of 20. However, it soon became apparent that the pinacol boronate group was too large to fit into the Ser195 subpocket. Having previously experienced hydrolysis of the pinacol boronate during purification, model substrate 17b was used to study the stability of the pinacol boronate in PBS buffer by NMR (see Supporting Information Figure S1).

The target in data set [6] is FXIa (Homo sapiens, UniProt P03951). Briefly: Time-dependent potency determination against FXIa. Type of data set: biochemical. From the text: S5: Pharmacology: Material and Methods :
Data set [7] concerns the target Thrombin (Homo sapiens, UniProt P00734). Briefly: Time-dependent potency determination against thrombin.
Method: (§2) Time-dependent potency determination was carried out against FXIa, thrombin, trypsin, and plasmin to further evaluate the selectivity of compounds (Table 3).
Data set [8] concerns the target Plasmin (Homo sapiens, UniProt P00747). In words: Time-dependent potency determination against plasmin.
Method: as §2
For data set [9], the system named is Trypsin. Briefly: Time-dependent potency determination against trypsin. As to conditions: read-out: Trypsin IC50.
Method: as §2
For data set [10], the target named is T1, PKa. Briefly: Compound dissociation assay (jump dilution). As to conditions: 62.5-fold dilution after 10 min preincubation; monitored over 600 s with fluorogenic substrate.
Data set [11] deals with phosophodiesterase 4 (PDE4) enzyme. The arrangement: method as in PMID 19303290. As to conditions: read-out: potency; cited from earlier work.
Details of data set [12]: method as in PMID 34282650. As to conditions: 150 mg daily dose, clinical studies; cited from earlier work.
Setting [13] is: read-out: PKa IC50, 5 min preincubation.
[14] abbreviates: read-out: PKa IC50, 60 min preincubation.
The mark [15] stands for this setting: read-out: Thrombin IC50, 10 min preincubation.
[16] abbreviates: read-out: Thrombin IC50, 60 min preincubation.
Where [17] appears, read: Plasmin IC50, 1 min preincubation.
Where [18] appears, read: Plasmin IC50, 10 min preincubation.
The mark [19] stands for this setting: Plasmin IC50, 60 min preincubation.
Setting [20] is: read-out: PKa IC50, 1 min preincubation.
[21] abbreviates: read-out: PKa IC50, 10 min preincubation.

Plasmin, sequence (P00747 581-810 limits assumed, species assumed): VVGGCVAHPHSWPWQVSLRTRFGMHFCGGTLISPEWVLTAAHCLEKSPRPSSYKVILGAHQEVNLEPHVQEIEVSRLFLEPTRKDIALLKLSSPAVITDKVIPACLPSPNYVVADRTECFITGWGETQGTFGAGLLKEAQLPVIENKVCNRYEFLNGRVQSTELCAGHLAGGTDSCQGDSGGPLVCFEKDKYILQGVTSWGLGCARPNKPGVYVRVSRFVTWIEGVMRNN
Plasmin, sequence (P00747 97-580 partner limits assumed, species assumed): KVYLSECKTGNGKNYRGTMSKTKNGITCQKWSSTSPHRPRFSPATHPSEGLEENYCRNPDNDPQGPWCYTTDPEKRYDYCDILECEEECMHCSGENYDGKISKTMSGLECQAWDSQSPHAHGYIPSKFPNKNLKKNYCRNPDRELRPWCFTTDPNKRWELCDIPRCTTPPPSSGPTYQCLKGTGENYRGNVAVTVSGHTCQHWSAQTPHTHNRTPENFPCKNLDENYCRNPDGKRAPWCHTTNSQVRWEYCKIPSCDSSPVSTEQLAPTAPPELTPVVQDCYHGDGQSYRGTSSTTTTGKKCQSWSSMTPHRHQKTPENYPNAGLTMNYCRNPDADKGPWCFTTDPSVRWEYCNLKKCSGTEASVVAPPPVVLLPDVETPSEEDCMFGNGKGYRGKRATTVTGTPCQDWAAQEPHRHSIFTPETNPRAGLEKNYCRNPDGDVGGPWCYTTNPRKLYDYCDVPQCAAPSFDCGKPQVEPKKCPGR
FXIa, sequence (P03951 388-625 limits assumed): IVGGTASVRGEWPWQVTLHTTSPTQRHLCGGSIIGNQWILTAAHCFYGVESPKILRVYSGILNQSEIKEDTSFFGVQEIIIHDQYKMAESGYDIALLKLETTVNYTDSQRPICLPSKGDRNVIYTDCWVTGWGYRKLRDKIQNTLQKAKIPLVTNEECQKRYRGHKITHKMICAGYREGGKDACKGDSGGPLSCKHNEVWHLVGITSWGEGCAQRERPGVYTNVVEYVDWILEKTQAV
FXIa, sequence (P03951 19-387 partner limits assumed): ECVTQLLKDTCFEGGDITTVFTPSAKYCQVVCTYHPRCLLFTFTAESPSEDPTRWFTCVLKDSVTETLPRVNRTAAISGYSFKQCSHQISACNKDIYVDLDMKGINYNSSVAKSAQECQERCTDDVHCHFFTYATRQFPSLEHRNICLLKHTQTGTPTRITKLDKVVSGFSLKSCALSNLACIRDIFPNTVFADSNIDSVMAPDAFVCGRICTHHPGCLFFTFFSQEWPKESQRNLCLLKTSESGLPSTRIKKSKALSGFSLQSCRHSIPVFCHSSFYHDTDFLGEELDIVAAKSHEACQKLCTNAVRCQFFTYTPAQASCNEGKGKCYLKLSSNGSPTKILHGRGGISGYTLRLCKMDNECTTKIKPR
plasma kallikrein (PKa), sequence (P03952 391-638 limits assumed): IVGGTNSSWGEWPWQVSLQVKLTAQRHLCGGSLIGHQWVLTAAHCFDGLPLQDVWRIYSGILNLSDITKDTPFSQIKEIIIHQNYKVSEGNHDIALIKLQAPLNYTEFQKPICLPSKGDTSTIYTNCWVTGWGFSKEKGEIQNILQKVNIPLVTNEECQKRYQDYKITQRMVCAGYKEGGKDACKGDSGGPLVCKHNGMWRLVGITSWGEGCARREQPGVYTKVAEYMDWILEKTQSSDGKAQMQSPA
plasma kallikrein (PKa), sequence (P03952 20-390 partner limits assumed): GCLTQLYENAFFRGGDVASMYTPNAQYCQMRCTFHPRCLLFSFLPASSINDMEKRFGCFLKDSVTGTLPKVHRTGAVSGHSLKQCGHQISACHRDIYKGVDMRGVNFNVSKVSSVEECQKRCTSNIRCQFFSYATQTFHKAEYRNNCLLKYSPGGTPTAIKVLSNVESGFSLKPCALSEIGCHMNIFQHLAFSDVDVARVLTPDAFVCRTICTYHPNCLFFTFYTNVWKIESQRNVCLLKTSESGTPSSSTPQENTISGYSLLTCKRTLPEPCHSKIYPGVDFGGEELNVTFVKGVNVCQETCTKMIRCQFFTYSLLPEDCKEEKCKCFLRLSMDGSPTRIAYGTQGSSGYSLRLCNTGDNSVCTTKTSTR
T1 sequence (P03952 391-638 limits assumed): as the sequence (P03952 391-638 limits assumed) above
T1 sequence (P03952 20-390 partner limits assumed): as the sequence (P03952 20-390 partner limits assumed) above

For the compound `Cc1cc(N)nc(C)c1CNC(=O)c1cnn(Cc2ccc(Cn3cccn3)cc2)c1` [Compound 11], the IC50 in data set [1] was 0.002 µM.
Take `CC1(C)OB(C(N)c2cccc(Cl)c2)OC1(C)C.Cl` (centres unmarked) [Compound 15a]: the IC50 in data set [2] (5 min preincubation) was greater than 400 µM; in data set [2] (60 min preincubation), greater than 400 µM; in data set [4] (setting [13]), greater than 400000 nM; in data set [4] (setting [14]), greater than 400000 nM. Also, in data set [3], the “Stability in DMSO / aqueous media” value was “unstable over time in DMSO”. Besides, in data set [4], the “Inhibition of PKa (in words)” value is “no activity”.
Consider `CC1(C)OB(C(NC(=O)c2cnn(Cc3ccccc3)c2)c2cccc(Cl)c2)OC1(C)C` (centres unmarked) [Compound 17a], for which the IC50 in data set [2] (5 min preincubation) and in data set [2] (60 min preincubation) was greater than 400 µM throughout.
In the case of `Cc1ccc(C(NC(=O)c2cnn(Cc3ccccc3)c2)B2OC(C)(C)C(C)(C)O2)c(F)c1` (centres unmarked) [Compound 17b], the IC50 in data set [2] (5 min preincubation) and in [2] (60 min preincubation) was greater than 400 µM in each case. Besides, the “Stability of the pinacol boronate in PBS buffer by NMR” value in data set [5] is given as “rapidly hydrolyzed”.
Consider `O=C(NC(B(O)O)c1cccc(Cl)c1)c1cnn(Cc2ccccc2)c1` (centres unmarked) [Compound 18], for which the IC50 in [2] (5 min preincubation) was greater than 400 µM; in data set [2] (60 min preincubation), greater than 400 µM; in data set [4] (setting [13]), greater than 400000 nM; in [4] (setting [14]), greater than 400000 nM. In addition, the “Inhibition of FXIIa activity (in words)” value in data set [2] was “no activity”. The “Stability in DMSO / aqueous media” value in data set [3] was “instability in DMSO and aqueous media”. In addition, in data set [4], the “Inhibition of PKa (in words)” value is given as “no activity”.
As to `CC1(C)OB(C(NC(=O)c2cnn(Cc3ccc(Cn4cccn4)cc3)c2)c2cccc(Cl)c2)OC1(C)C` (centres unmarked) [Compound 19], the IC50 in data set [6] (1 min preincubation), in data set [6] (10 min preincubation), in [6] (60 min preincubation), in data set [7], in data set [7] (setting [15]) and in [7] (setting [16]) was greater than 40 µM each time. In addition, the IC50 in [8] (setting [17]), in data set [8] (setting [18]) and in data set [8] (setting [19]) was greater than 40 µM throughout.
In the case of `Cc1ccc(C(NC(=O)c2cnn(Cc3ccc(Cn4cccn4)cc3)c2)B2OC(C)(C)C(C)(C)O2)c(F)c1` (centres unmarked) [Compound 20], in [2], the “Inhibition of FXIIa activity (in words)” value is recorded as “no effect”. Moreover, the IC50 in data set [9] (1 min preincubation) was greater than 40 µM; in data set [9] (10 min preincubation), greater than 40 µM; in data set [9] (60 min preincubation) it was greater than 40 µM; in data set [6] (1 min preincubation) it was 18.8 µM; in data set [6] (10 min preincubation), 16.5 µM; in data set [6] (60 min preincubation), 12.2 µM. In addition, the IC50 in [4] was determined as 0.33 nM; in data set [4] (setting [20]) it was 66 nM; in data set [4] (setting [21]), 6.9 nM; in data set [4] (setting [14]) it was 0.3 nM; in [4] (read-out: PKa IC50, 2 h, extended time course), 0.29 nM; in [4] (read-out: PKa IC50, 24 h), 0.07 nM. Besides, the IC50 is greater than 40 µM in [7]; greater than 40 µM in [7] (setting [15]); greater than 40 µM in [7] (setting [16]); 22 µM in data set [8] (setting [17]); 19.8 µM in data set [8] (setting [18]); 12.1 µM in data set [8] (setting [19]). The “Inhibitor dissociation from PKa” value in data set [10] is reported as “no apparent reversibility”.
On to `Cc1ccc(C(NC(=O)c2cnn(Cc3ccc(Cn4ccccc4=O)cc3)c2)B2OC(C)(C)C(C)(C)O2)c(F)c1` (centres unmarked) [Compound 21], for which the IC50 in data set [4] (setting [20]) was 94 nM; in data set [4] (setting [21]), 17 nM; in data set [4] (setting [14]), 1.9 nM.
Consider `O=C(NCc1cccc(Cl)c1)c1cnn(Cc2ccc(Cn3cccn3)cc2)c1` [Compound 24], for which the IC50 in [9] (1 min preincubation), in data set [9] (10 min preincubation), in [9] (60 min preincubation), in data set [6] (1 min preincubation), in [6] (10 min preincubation) and in [6] (60 min preincubation) was greater than 40 µM each time. The IC50 in [4] (setting [20]) was greater than 40000 nM; in data set [4] (setting [21]) it was greater than 40000 nM; in [4] (setting [14]), greater than 40000 nM; in data set [7], greater than 40 µM; in data set [7] (setting [15]) it was greater than 40 µM; in data set [7] (setting [16]) it was greater than 40 µM. Besides, the IC50 in [8] (setting [17]), in [8] (setting [18]) and in [8] (setting [19]) was greater than 40 µM throughout. Also, the “Inhibition of PKa (in words)” value in data set [4] is on record as “no PKa inhibition”. The “Inhibitor dissociation from PKa” value in [10] was “rapid dissociation”.
In the case of `O=C(NCc1cccc(Cl)c1)c1cnn(Cc2ccc(Cn3ccccc3=O)cc2)c1` [Compound 25], the IC50 in [4] (setting [20]) was 270 nM; in [4] (setting [21]), 284 nM; in data set [4] (setting [14]) it was 278 nM.
For `Cc1ccc(CNC(=O)c2cnn(Cc3ccc(Cn4cccn4)cc3)c2)c(F)c1` [Compound 26], the IC50 in data set [9] (1 min preincubation), in [9] (10 min preincubation), in [9] (60 min preincubation), in data set [6] (1 min preincubation), in [6] (10 min preincubation) and in data set [6] (60 min preincubation) was greater than 40 µM each time. The IC50 in data set [4] (setting [20]) was 199 nM; in [4] (setting [21]), 203 nM; in data set [4] (setting [14]), 196 nM; in data set [7], greater than 40 µM; in data set [7] (setting [15]) it was greater than 40 µM; in [7] (setting [16]), greater than 40 µM. Besides, the IC50 in [8] (setting [17]), in [8] (setting [18]) and in data set [8] (setting [19]) was greater than 40 µM each time. Also, the “Inhibitor dissociation from PKa” value in data set [10] is “rapid dissociation”.
As for `Cc1ccc(CNC(=O)c2cnn(Cc3ccc(Cn4ccccc4=O)cc3)c2)c(F)c1` [Compound 27], the values for the IC50 in data set [4] (setting [20]), in [4] (setting [21]) and in [4] (setting [14]) were 37 nM, 37 nM and 35 nM, respectively.
In the case of `O=C(/C=C/c1cccc(Cl)c1)c1cnn(Cc2ccc(Cn3cccn3)cc2)c1` [Compound 29], the IC50 in data set [4] (setting [20]), in data set [4] (setting [21]) and in data set [4] (setting [14]) was greater than 40000 nM in each case.
For `CC1(C)OB(C(CC(=O)c2cnn(Cc3ccc(Cn4cccn4)cc3)c2)c2cccc(Cl)c2)OC1(C)C` (centres unmarked) [Compound 31], the IC50 in [6] (1 min preincubation), in data set [6] (10 min preincubation), in [6] (60 min preincubation), in data set [7], in [7] (setting [15]) and in [7] (setting [16]) was greater than 40 µM in each case. In addition, the IC50 in data set [8] (setting [17]), in data set [8] (setting [18]) and in data set [8] (setting [19]) was greater than 40 µM each time.
As to `Cc1ccc(C(CC(=O)c2cnn(Cc3ccc(Cn4cccn4)cc3)c2)B2OC(C)(C)C(C)(C)O2)c(F)c1` (centres unmarked) [Compound 32], the IC50 in [6] (1 min preincubation), in [6] (10 min preincubation), in data set [6] (60 min preincubation), in data set [7], in data set [7] (setting [15]) and in data set [7] (setting [16]) was greater than 40 µM throughout. The IC50 in data set [8] (setting [17]), in data set [8] (setting [18]) and in data set [8] (setting [19]) was greater than 40 µM each time.
Turning to `N#Cc1ccc(Oc2ccc3c(c2)COB3O)cc1` [Crisaborole], the IC50 in data set [11] was 0.49 µM.
For `N#Cc1cccc([C@@H](NCC2CC2)c2ccc(F)c(NC(=O)c3cc(C(F)(F)F)nn3-c3cccc(CN)c3)c2)c1` [berotralstat], the “Efficacy as an oral prophylactic for HAE” value in [12] was “efficacious”.
Consider “D-Phe-Pro-Arg-chloromethylketone [Compound 23, reference compound]”, for which the IC50 in data set [6] (1 min preincubation) is greater than 40 µM; in data set [6] (10 min preincubation) it was greater than 40 µM; in [6] (60 min preincubation), greater than 40 µM; in data set [8] (read-out: Plasmin IC50, 1 min preincubation), 3.64 µM; in [8] (read-out: Plasmin IC50, 10 min preincubation) it was 1.22 µM; in data set [8] (read-out: Plasmin IC50, 60 min preincubation), 0.248 µM.
